US20040101488A1, “Method for the prevention of septic shock lethality using curcumin” (priority 2000, published 2004)
“Also recorded” adds a separate entry of the source.

Assays:
[1] = tested on: mice injected with lipopolysaccharide (septic shock); experiment: LPS-induced septic shock in mice: survival and symptoms; assay type: in vivo; details: for Percentage Survival: prior to and after LPS (40 mg/kg i.p.), mice
Description: In septic shock experiments, age-and body weight-matched (25-30 g) female swiss albino mice were injected intraperitoneally with 40 mg/kg LPS solubilised in 200 μl sterile 0.9% saline. Control animals received equal volumes of saline. For groups that were treated with curcumin, the mice were fed orally with 20 mg/kg to 60 mg/kg body weight curcumin suspended in olive oil (20 mg/ml) at various times prior to and after injecting LPS. The mice were fed with curcumin 4 hrs and 2 hrs prior to, simultaneously and 4 hrs, 16 hrs, 24 hrs, 48 hrs and 72 hrs after injecting LPS. Following this, the mice were observed every 2-3 hours after LPS injection with respect to septic shock symptoms such as fever, lethargy, diarrhea, watery eyes and survival.
Intraperitoneal injection of high doses of LPS (40 mg/kg) induced lethal endotoxin shock in mice. […] The death occurred within 24-48 hrs after receiving LPS. To test whether curcumin protects mice injected with LPS from septic shock, we treated mice with varying doses of curcumin 4 hrs and 2 hrs prior to, simultaneously and 4 hrs, 16 hrs, 24 hrs, 48hrs and 72 hrs after injecting LPS. […] Overall, severity of the septic shock symptoms in treated group was much less in comparison with control groups (as shown in Table 2). The mice start recovering within 48 to 72 hrs. Most importantly, 70% of the mice treated with 40 mg/kg to 60 mg/kg curcumin survived from death (FIG. 1).

[2] = tested on: adhesion of human peripheral neutrophils to endothelial cells from human umbilical cord; experiment: Cell adherence assay: neutrophil adhesion to endothelial monolayers; assay type: cell-based
Description: Endothelial cells grown to confluency in 96 well plates were incubated without or with indicated concentrations of curcumin for 1 hr followed by induction without (hatched bars) or with (closed bars) LPS (1 μg/ml) for 6 hrs. The cells were then incubated with human peripheral neutrophils for 1 hr. The amount of neutrophils adhering to the endothelial cell monolayers was measured by a colorimetric assay as described in Example 6.
Primary endothelial cells were isolated from human umbilical cord. For isolation of the cells the umbilical cord vein was canulated and then perfused with phosphate buffer saline to remove blood and then incubated with 0.125% trypsin for 15 mins at 37° C. The vein was then perfused with PBS and the cells were collected. […] The viability of endothelial cells in culture was checked by trypan blue exclusion test and the purity was determined by E-selectin staining. […]
Adhesion of neutrophils to endothelial monolayers was assayed as described previously (Dobrina A et al., J. Clin. Invest., 88:20-26 1991). […] The absorbance was determined at […] using an automated microplate reader (Anthos Labtech HT2, Austria).

[3] = tested on: mice injected with lipopolysaccharide (septic shock); experiment: LPS-induced septic shock in mice: survival and symptoms; assay type: in vivo; details: none prior
[4] = tested on: neutrophils in the liver of LPS injected mice; experiment: Liver histology, chloroacetate esterase staining of neutrophils after LPS challenge; details: 24 hrs after LPS challenge, liver sections, FIG. 2

SMILES: COc1cc(/C=C/C(=O)CC(=O)/C=C/c2ccc(O)c(OC)c2)ccc1O [curcumin, diferuloylmethane]
- mice survived from death ([1]; 40 mg/kg to 60 mg/kg curcumin orally, LPS 40 mg/kg i.p., FIG. 1): 70%
- Percentage Survival ([1]; curcumin 20 mg/kg body weight orally): 0%
- Percentage Survival ([1]; curcumin 40 mg/kg body weight orally): 70%
- Percentage Survival ([1]; curcumin 60 mg/kg body weight orally): 70%
- severity of the septic shock symptoms versus control groups ([1]; curcumin treated mice, LPS 40 mg/kg i.p., lethargy, watery eyes, diarrhea): much less
- protection of mice by low dose of curcumin ([1]; low dose, LPS 40 mg/kg i.p.): not able to protect the mice
- adhesion of neutrophils to unstimulated endothelial monolayers ([2]; 10 μM to 40 μM curcumin for 1 hr, no LPS): did not affect
- inhibition of neutrophil adhesion to LPS stimulated endothelial cells ([2]; curcumin 40 μM for 1 hr, then LPS 1 μg/ml for 6 hrs, concentration dependent over 10 to 40 μM): almost complete inhibition
- survival of recovered mice on repeated LPS injection ([3]; curcumin only simultaneously with and after LPS (3, 6, 9, 24, 42 hrs)): all the animals survived; also recorded: all survived death
- severity of septic shock symptoms in recovered mice on repeated LPS injection ([3]; curcumin only simultaneously with and after LPS): significant reduction in severity of septic shock symptoms
- extravasation of neutrophils in the liver versus untreated mice [4]: much reduced
